Data reported in patent US20240285552A1 (priority 2020, published 2024).
Entries after “also recorded” stand apart in the source; their conditions may differ. Where a name gives a salt, the structure may show the parent alone. Read-outs that look alike come from different tables or passages of the source.

Columns and labels:
SARS-CoV-2 USA_WA1/2020 [1] = test: microbe, parasite or virus in culture; assay type: cell-based
[2] = biological target: T1, recombinant human ACE2 (rhACE2) (Homo sapiens, UniProt Q9BYF1); test: ACE2 exopeptidase inhibitor screening assay (fluorogenic substrate), AMB and BHH; assay type: biochemical
T1 construct: purchased BPS Bioscience 79923
Procedure: ACE2 Inhibitor Screening Assay. An ACE2 exopeptidase Inhibitor screening assay kit with the fluorogenic substrate (Catalogue #79923) was purchased from BPS Bioscience (San Diego, CA) and modified to measure the exopeptidase activity of ACE2 in the presence and absence of inhibitors (BPSBioscience, 2022). Following the manufacturer's directions, the fluorescence assay was carried out in a 96-well black flat-bottom plate with a final reaction volume of 50 μL. 50 mM stock solutions of BHH and AMB in 100% DMSO were prepared. Compounds were serially diluted in DMSO as follows: 500, 250, 100, 50, 10, 1, 0.1 μM. All experiments were done in triplicates and repeated twice. A positive control of enzyme treated with vehicle alone (2 percent DMSO) and a blank control with no enzyme were included on each plate.
Each reaction had 24 μL of purified recombinant human ACE2 protein (0.42 ng/L) in ACE2 buffer, 1 μL of the compound at different concentrations, and 25 μL ACE2 fluorogenic substrate. The final volume of the reaction was 50 μL. The reaction mixtures were incubated for 1 hr at room temperature (22° C.) and protected from light. After that, the fluorescence intensities (λExcitation=535 nm, λEmission=595 nm) were measured using a Spectramax iD3 multimode plate reader. The background hydrolysis was subtracted, and the data were fitted to a four-parameter logistic (variable slope) equation using GraphPad prism software 9.1.

ACE1 [3] = biological target: T2, ACE1 (Homo sapiens, UniProt P12821); test: ACE1 activity assay (colorimetric); assay type: biochemical; settings: hydrochloride
T2 construct: purchased Sigma-Aldrich MAK422
Procedure: ACE1 Activity Assay. ACE1 Inhibitor Screening Kit (Cat #MAK422) was purchased from Sigma-Aldrich (St. Louis, MO) and adapted to determine the effect of BHH and AMB on the enzymatic activity of ACE (Aldrich, 2022). The in vitro colorimetric assay was performed in a transparent flat-bottom 96-well plate. 50 mm and 10 mm solutions of Captropil, a known ACE1 inhibitor were used as a positive inhibitor control. Stock solutions of the compounds were prepared in 100% Dimethyl sulfoxide (DMSO) and further serially diluted in DMSO as follows: 500, 100, 50,10,5,1 and 0.5 μm for AMB and the positive control Captropil. All experiments were performed in quadruplicates. Each plate contained positive controls (1% DMSO) and blank controls with no ACE1 enzyme. Specifically, 2.5 μl of serially diluted compounds were pre-incubated with 2 μl of ACE1 protein diluted in 38 μl of 1× assay diluent buffer for about 15 mins, at room temperature (22° C.). 157.5 μl of 1×ACE1 assay buffer (197.5 μl for −ve control) was added into the 96 well plates. The solution was mixed well and incubated at 37° C. for 15-20 minutes, protected from light. After that, 40 μl of the substrate was added to each well and mixed well. The absorbance was measured immediately at 345 nm (A345) in kinetic mode for 60 minutes.

SARS-CoV-2 USA_WA1/2020 [4] = settings: hamster
Vero E6 cells = settings: Vero E6; at 30 μM; Example B
ACE1 [5] = test: Western blotting, ACE1 expression in A549 cells; assay type: cell-based, human; settings: 50 μm, 24 hrs and 48 hrs
Procedure: (§1) Western blotting. A549 “Lung” cells (RRID:CVCL_COQ5) were harvested in a radioimmuno precipitation assay (RIPA) buffer (Tris 10 mM pH 7.4, containing 140 mM NaCl, 1 mM EDTA, 1 mM NaF, 0.10% SDS, 0.50% sodium deoxycholate 0.1% NP-40, 1% Triton X-100) in the presence of protease inhibitors (Thermo Fisher) at 24 hrs. and 48 hrs. Protein concentration was determined by was determined using bicinchoninic acid with bovine serum albumin as a standard (Thermo Fisher). Equal amounts of protein were loaded and separated by SDS-PAGE using 10% pre-casted gels (Biorad). Proteins were electroblotted onto nitrocellulose membranes (Bio-Rad). The blots were blocked using 5% (w/v) milk in Tris-buffered saline containing 0.5% (v/v) Tween-20. The membranes were then incubated with different antibodies. Antibodies directed against ACE1 (ab28311) and ACE2 (ab108209) were used and the GAPDH antibody was used as loading control for cell lysates. Primary and secondary antibodies were diluted in Tris-buffered saline containing (0.5% v/v) Tween-20 (TBS-T) supplemented with 5% milk. The bands were visualized by incubating the blots with enhanced chemiluminescence reagent (ECL, Biorad) and visualized using chemidoc. Band intensities were quantified by using imagelab software Biorad.

ACE2 = test: Western blotting, ACE2 expression in A549 cells; assay type: cell-based, human; settings: 50 μm, 24 hrs and 48 hrs, hydrochloride
Procedure: as §1

T1 sequence (Q9BYF1 18-805): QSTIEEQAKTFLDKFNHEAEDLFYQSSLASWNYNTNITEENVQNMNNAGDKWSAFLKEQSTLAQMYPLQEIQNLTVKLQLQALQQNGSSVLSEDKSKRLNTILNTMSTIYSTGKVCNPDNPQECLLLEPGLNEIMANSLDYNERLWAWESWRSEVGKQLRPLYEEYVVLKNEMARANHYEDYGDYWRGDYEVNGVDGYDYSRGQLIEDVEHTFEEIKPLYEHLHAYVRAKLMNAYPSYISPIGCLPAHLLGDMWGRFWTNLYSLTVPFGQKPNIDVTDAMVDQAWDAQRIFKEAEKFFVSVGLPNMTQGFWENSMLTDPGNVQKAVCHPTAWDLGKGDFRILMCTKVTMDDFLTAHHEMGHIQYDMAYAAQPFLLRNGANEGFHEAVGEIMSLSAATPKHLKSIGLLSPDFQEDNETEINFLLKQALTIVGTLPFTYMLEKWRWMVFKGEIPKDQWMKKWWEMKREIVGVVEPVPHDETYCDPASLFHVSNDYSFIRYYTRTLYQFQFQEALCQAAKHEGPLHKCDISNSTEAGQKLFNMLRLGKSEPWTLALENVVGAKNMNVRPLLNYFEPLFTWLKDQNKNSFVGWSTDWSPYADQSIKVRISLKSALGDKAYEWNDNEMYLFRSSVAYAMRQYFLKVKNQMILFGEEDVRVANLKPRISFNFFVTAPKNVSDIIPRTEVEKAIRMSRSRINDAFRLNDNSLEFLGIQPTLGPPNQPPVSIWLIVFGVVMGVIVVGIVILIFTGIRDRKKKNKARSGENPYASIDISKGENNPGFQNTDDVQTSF
T2 sequence (P12821 30-1306): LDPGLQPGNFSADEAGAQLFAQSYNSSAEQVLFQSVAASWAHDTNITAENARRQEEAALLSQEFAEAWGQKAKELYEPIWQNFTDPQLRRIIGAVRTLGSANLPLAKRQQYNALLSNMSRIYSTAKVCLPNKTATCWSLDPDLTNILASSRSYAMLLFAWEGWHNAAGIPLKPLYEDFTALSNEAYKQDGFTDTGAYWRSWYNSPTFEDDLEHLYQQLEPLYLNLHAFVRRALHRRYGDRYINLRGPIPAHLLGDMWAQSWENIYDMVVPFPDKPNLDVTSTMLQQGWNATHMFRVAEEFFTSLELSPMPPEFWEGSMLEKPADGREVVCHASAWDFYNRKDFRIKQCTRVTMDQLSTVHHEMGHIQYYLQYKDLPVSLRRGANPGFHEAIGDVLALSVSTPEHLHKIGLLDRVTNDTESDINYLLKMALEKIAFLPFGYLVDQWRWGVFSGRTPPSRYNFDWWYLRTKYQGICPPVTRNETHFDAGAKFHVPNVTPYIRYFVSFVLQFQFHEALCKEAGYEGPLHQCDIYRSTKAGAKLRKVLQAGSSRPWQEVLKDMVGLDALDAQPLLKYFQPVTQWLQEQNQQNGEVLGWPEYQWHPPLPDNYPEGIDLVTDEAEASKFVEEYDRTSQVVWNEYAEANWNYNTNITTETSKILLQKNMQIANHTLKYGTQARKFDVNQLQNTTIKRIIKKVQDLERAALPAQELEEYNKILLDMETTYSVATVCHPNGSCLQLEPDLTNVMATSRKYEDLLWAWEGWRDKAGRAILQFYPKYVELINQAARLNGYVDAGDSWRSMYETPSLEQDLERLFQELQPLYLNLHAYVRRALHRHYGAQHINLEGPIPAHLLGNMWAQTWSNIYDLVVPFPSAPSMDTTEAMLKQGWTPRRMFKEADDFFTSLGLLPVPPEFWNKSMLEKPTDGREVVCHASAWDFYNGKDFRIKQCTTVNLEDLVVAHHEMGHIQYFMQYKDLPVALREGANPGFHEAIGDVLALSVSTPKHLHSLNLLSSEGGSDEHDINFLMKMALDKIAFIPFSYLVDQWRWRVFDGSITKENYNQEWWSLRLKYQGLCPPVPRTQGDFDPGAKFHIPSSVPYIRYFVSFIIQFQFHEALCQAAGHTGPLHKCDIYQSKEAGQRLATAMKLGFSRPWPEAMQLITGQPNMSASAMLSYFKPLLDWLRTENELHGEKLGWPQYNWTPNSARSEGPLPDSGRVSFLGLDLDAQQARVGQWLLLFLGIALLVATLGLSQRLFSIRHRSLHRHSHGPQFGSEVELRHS

CN(Cc1cc(Br)cc(Br)c1N)C1CCCCC1 [BHH, Bromhexine hydrochloride]
Concentration at Maximum % Inhibition (SARS-CoV-2 USA_WA1/2020 [1]; Example C (Table 3)): 37.5 µM
Maximum Inhibition (SARS-CoV-2 USA_WA1/2020 [1]; Example C (Table 3)): 72.39%
IC50 (SARS-CoV-2 USA_WA1/2020 [1]; Severe acute respiratory syndrome coronavirus 2, Vero C1008, Example C (Table 3), read-out: IC 50 against SARS-COV-2 Induced Cytopathic Effect in Vero E6 Cells): ~31.6 µM
IC50 (SARS-CoV-2 USA_WA1/2020 [1]; Severe acute respiratory syndrome coronavirus 2, Vero C1008, Vero E6, Example B, highest concentration tested 30 μM, read-out: IC50 against SARS-CoV-2 infection induced CPE): ~21.7 µM
inhibition at 30 µM (SARS-CoV-2 USA_WA1/2020 [1]; Severe acute respiratory syndrome coronavirus 2, Vero C1008, at 30 μM, Example B, read-out: inhibition of SARS-CoV-2 induced CPE at maximum concentration): ~91.1%
EC50 (SARS-CoV-2 USA_WA1/2020 [1]; Severe acute respiratory syndrome coronavirus 2, Vero C1008, read-out: EC50 values against SARS-CoV-2 (summary statement)): ~30 µM
ACE2 Exopeptidase Activity: Percent Activity ([2]; 0.1 uM): 111.3%
inhibition at 0.1 µM ([2]; 0.1 uM, read-out: ACE2 Exopeptidase Activity: Percent Inhibition): -11.3%
ACE2 Exopeptidase Activity: Percent Activity ([2]; 1 uM): 114.7%
inhibition at 1 µM ([2]; 1 uM, read-out: ACE2 Exopeptidase Activity: Percent Inhibition): -14.7%
ACE2 Exopeptidase Activity: Percent Activity ([2]; 10 uM): 104.6%
inhibition at 10 µM ([2]; 10 uM, read-out: ACE2 Exopeptidase Activity: Percent Inhibition): -4.6%
ACE2 Exopeptidase Activity: Percent Activity ([2]; 50 uM): 2.7%
inhibition at 50 µM ([2]; 50 uM, read-out: ACE2 Exopeptidase Activity: Percent Inhibition): 97.3%
ACE2 Exopeptidase Activity: Percent Activity ([2]; 100 uM): −6.2%
inhibition at 100 µM ([2]; 100 uM, read-out: ACE2 Exopeptidase Activity: Percent Inhibition): 106%
ACE2 Exopeptidase Activity: Percent Activity ([2]; 250 uM): −6.7%
inhibition at 250 µM ([2]; 250 uM, read-out: ACE2 Exopeptidase Activity: Percent Inhibition): 107%
ACE2 Exopeptidase Activity: Percent Activity ([2]; 500 uM): −6.6%
inhibition at 500 µM ([2]; 500 uM, read-out: ACE2 Exopeptidase Activity: Percent Inhibition): 107%
IC50 ([2]; read-out: IC50, exopeptidase function of ACE2): 26 µM
effect on exopeptidase activity of rhACE2 ([2]; tested 0.1 to 500 μM, hydrochloride): completely inhibited
effect on exopeptidase activity of ACE (ACE1 [3]): inhibited; also recorded: showed activity against ACE1
Overall Gmean Days 1-4, N2 gRNA, rectal swabs (SARS-CoV-2 USA_WA1/2020 [4]): 1.00E+05 copies/swab
Overall Gmean Days 1-4 higher than Group 3, N2 gRNA, rectal swabs (SARS-CoV-2 USA_WA1/2020 [4]): 2 fold
Peak viral load versus Group 3, N2 gRNA, rectal swabs (SARS-CoV-2 USA_WA1/2020 [4]): similar
SARS-CoV-2 genome load, N2 gRNA, lungs (SARS-CoV-2 USA_WA1/2020 [4]; Day 4): 6.20E+09 copies/gram
SARS-CoV-2 genome load, N2 gRNA, trachea (SARS-CoV-2 USA_WA1/2020 [4]; Day 4): 1.21E+09 copies/gram
active replication load higher than Group 3, E sgRNA, lungs (SARS-CoV-2 USA_WA1/2020 [4]; Day 4): 3 fold
active replication load, E sgRNA, lungs (SARS-CoV-2 USA_WA1/2020 [4]; Day 4): 4.41E+07 copies/gram
active replication load, E sgRNA, nasal turbinate (SARS-CoV-2 USA_WA1/2020 [4]; Day 4): 1.67E+08 copies/gram
active replication load, E sgRNA, trachea (SARS-CoV-2 USA_WA1/2020 [4]; Day 4): 2.58E+06 copies/gram
genome load higher than Group 3, N2 gRNA, lungs (SARS-CoV-2 USA_WA1/2020 [4]; Day 4): 3 fold
replication load higher than Group 3, E sgRNA, trachea (SARS-CoV-2 USA_WA1/2020 [4]; Day 4): 2 fold
viral load higher than Group 3, N2 gRNA, trachea (SARS-CoV-2 USA_WA1/2020 [4]; Day 4): 2 fold
serum IL-6 levels versus Group 3 (SARS-CoV-2 USA_WA1/2020 [4]; Day 4, ELISA, P<0.05): significantly lower
serum TNF-α versus Group 3 (SARS-CoV-2 USA_WA1/2020 [4]; Day −1, Day 2 (P<0.05), Day 4 (P<0.001)): significantly low
serum IL-10 levels between groups (SARS-CoV-2 USA_WA1/2020 [4]; Days −1, 2, 4): No significance difference
incidence and severity of microscopic lesions versus vehicle control (SARS-CoV-2 USA_WA1/2020 [4]; lung histopathology): similar
lung viral load by TCID50 assay versus vehicle control (SARS-CoV-2 USA_WA1/2020 [4]; lung samples Day 4): No difference
SARS-CoV-2 genome load, N2 gRNA, nasal turbinate (SARS-CoV-2 USA_WA1/2020 [4]; necropsy Day 4): 3.57E+10 copies/gram
gross lesions in the lung (SARS-CoV-2 USA_WA1/2020 [4]; necropsy Day 4): reduced gross lesions in the lung
Overall Gmean Days 1-4, E sgRNA, pharyngeal swabs (SARS-CoV-2 USA_WA1/2020 [4]; AMB 500, BHH 200 mg/kg/day PO): 4.82E+04 copies/swab
Overall Gmean Days 1-4 lower than Group 3, E sgRNA, pharyngeal swabs (SARS-CoV-2 USA_WA1/2020 [4]; AMB 500, BHH 200 mg/kg/day PO): 2 fold
Overall Gmean Days 1-4 viral load lower than Group 3, N2 gRNA, pharyngeal swabs (SARS-CoV-2 USA_WA1/2020 [4]; AMB 500, BHH 200 mg/kg/day PO): 2 fold
Overall Gmean viral load Days 1-4, N2 gRNA, pharyngeal swabs (SARS-CoV-2 USA_WA1/2020 [4]; AMB 500, BHH 200 mg/kg/day PO): 4.93E+07 copies/swab
Peak viral load lower than vehicle (Group 3), N2 gRNA, pharyngeal swabs (SARS-CoV-2 USA_WA1/2020 [4]; AMB 500, BHH 200 mg/kg/day PO): 3 fold
Peak viral replication load lower than Group 3, E sgRNA, pharyngeal swabs (SARS-CoV-2 USA_WA1/2020 [4]; AMB 500, BHH 200 mg/kg/day PO): 4 fold
tolerability of administered doses (SARS-CoV-2 USA_WA1/2020 [4]; AMB 500, BHH 200 mg/kg/day PO, up to 5 days): tolerated the administered doses well
Peak viral load, N2 gRNA, pharyngeal swabs (SARS-CoV-2 USA_WA1/2020 [4]; AMB 500, BHH 200 mg/kg/day PO, peak Day 2 (AMB), Day 1 (BHH)): 4.93E+07 copies/swab
Peak viral replication load, E sgRNA, rectal swabs (SARS-CoV-2 USA_WA1/2020 [4]; peak Day 1 (AMB), Day 2 (BHH)): 4.29 copies/swab
Peak viral replication load, E sgRNA, pharyngeal swabs (SARS-CoV-2 USA_WA1/2020 [4]; peak Day 2 (AMB), Day 1 (BHH)): 2.65E+05 copies/swab
Peak viral load, N2 gRNA, rectal swabs (SARS-CoV-2 USA_WA1/2020 [4]; peak on Day 2): 1.54E+05 copies/swab
percent minimum viability (Vero E6 cells): 103.87%
change of ACE1 expression (ACE1 [5]): no changes
change of ACE2 expression (ACE2): no changes
change of ACE2 expression (ACE2; listed as BBH): does not affect
